Data from publication PMC7827406, “Structure–Activity Relationship (SAR) Study of Spautin-1 to Entail the Discovery of Novel NEK4 Inhibitors” (International Journal of Molecular Sciences, 2021).
Read-outs that look alike come from different tables or passages of the source.

What was measured:
[1] = biological target: T1, NEK4 (Homo sapiens, UniProt P51957); test: radiometric kinase assay (Eurofins), IC50; assay type: biochemical
[2] = biological target: T2, CDK5/p35(h) (Homo sapiens, UniProt Q00535); test: biochemical; design: Eurofins KinaseProfiler full panel at Km ATP, residual kinase activity (%) relative to DMSO
T2 construct: p35
T2 sequence (Q00535 whole entry): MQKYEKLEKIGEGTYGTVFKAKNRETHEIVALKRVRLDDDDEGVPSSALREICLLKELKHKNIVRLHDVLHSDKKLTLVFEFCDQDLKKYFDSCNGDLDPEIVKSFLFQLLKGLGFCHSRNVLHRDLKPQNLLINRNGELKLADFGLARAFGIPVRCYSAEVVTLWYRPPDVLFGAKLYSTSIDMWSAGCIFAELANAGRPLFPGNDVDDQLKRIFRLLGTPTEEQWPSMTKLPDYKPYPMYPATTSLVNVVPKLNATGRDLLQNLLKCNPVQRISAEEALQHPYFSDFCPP
T2 sequence (Q15078 whole entry partner): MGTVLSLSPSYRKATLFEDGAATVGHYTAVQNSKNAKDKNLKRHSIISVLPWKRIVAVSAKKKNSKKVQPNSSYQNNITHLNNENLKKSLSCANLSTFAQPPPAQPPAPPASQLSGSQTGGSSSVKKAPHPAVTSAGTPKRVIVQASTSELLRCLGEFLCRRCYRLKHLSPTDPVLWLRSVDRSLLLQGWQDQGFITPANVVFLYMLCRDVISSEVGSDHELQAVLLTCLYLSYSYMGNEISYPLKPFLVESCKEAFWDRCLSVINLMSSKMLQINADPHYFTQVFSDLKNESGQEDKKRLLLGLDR
Summary of the method: (§1)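 Two 10 µM single-concentration screens were run: a competition-binding screen, in which DNA-tagged kinase bound to immobilized ligands was quantified by qPCR, and a radiometric activity panel at Km ATP. Each is expressed as residual kinase activity (%).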

[3] = biological target: T3, CLK4 (Homo sapiens, UniProt Q9HAZ1); test: biochemical; design: Eurofins KinaseProfiler full panel at Km ATP, residual kinase activity (%) relative to DMSO
T3 sequence (Q9HAZ1 whole entry): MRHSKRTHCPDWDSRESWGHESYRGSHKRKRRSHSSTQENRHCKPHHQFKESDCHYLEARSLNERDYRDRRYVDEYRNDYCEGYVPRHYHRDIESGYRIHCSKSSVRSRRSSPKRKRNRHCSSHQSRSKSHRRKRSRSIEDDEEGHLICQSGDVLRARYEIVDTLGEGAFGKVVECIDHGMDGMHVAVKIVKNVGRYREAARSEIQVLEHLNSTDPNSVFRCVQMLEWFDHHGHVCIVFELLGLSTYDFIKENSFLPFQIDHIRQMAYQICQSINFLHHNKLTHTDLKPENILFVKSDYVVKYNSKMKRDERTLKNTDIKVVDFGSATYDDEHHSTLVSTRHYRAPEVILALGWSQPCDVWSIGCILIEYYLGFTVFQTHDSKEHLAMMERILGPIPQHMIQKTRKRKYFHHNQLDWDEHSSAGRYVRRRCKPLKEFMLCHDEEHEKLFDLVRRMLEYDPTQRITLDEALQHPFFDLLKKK
Summary of the method: as §1

[4] = biological target: T4, EGFR (Homo sapiens, UniProt P00533); test: biochemical; design: Eurofins KinaseProfiler full panel at Km ATP, residual kinase activity (%) relative to DMSO
Summary of the method: as §1

[5] = biological target: T5, MLK1(h) (Homo sapiens, UniProt P80192); test: biochemical; design: Eurofins KinaseProfiler full panel at Km ATP, residual kinase activity (%) relative to DMSO
T5 construct: gene MAP3K9
T5 sequence (P80192 whole entry): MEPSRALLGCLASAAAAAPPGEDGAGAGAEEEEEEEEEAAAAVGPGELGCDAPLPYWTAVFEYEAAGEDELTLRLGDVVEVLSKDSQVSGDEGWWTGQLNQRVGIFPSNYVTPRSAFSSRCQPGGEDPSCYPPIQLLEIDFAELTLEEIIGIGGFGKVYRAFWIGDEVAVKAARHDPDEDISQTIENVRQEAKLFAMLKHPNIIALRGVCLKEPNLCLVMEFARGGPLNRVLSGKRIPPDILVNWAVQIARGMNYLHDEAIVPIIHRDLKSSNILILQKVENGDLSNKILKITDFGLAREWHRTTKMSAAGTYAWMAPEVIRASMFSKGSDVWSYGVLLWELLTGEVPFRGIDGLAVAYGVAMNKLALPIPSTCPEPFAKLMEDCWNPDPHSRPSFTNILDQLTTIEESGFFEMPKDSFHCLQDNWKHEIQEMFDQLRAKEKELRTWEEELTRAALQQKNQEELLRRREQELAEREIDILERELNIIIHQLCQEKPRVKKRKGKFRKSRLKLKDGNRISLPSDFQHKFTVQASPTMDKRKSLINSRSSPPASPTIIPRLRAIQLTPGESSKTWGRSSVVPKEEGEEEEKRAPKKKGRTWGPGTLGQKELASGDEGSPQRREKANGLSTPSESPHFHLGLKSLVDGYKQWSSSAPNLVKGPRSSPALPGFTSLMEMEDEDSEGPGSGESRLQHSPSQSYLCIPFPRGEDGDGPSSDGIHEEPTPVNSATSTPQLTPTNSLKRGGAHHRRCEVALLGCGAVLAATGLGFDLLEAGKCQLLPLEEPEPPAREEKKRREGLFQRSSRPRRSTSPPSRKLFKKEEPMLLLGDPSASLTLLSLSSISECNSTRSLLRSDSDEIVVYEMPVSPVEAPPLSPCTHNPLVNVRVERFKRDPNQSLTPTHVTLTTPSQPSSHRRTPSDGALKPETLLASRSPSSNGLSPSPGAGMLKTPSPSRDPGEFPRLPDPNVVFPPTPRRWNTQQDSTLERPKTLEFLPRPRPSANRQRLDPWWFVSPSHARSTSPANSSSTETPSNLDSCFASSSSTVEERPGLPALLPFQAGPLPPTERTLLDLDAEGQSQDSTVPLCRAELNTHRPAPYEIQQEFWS
Summary of the method: as §1

[6] = biological target: T6, PDK1(h) (Homo sapiens, UniProt O15530); test: biochemical; design: Eurofins KinaseProfiler full panel at Km ATP, residual kinase activity (%) relative to DMSO
T6 construct: gene PDPK1
T6 sequence (O15530 1-556): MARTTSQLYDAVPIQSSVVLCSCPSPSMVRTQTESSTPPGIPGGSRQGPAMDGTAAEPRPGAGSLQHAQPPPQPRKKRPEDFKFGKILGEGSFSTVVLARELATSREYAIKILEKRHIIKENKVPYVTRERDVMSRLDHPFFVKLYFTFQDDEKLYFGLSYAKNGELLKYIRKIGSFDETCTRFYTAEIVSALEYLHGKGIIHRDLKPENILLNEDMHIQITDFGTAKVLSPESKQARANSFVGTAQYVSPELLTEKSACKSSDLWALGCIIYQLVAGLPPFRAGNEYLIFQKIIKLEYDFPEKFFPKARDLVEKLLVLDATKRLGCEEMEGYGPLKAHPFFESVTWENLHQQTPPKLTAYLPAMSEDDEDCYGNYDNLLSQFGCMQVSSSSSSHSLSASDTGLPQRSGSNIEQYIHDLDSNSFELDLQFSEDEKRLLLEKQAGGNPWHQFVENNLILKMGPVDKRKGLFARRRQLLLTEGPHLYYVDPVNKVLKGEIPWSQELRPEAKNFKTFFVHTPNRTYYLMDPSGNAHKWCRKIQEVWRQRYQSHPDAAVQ
Summary of the method: as §1

[7] = biological target: Plk3(h) (Homo sapiens, UniProt Q9H4B4); test: biochemical; design: Eurofins KinaseProfiler full panel at Km ATP, residual kinase activity (%) relative to DMSO
Summary of the method: as §1

[8] = biological target: WNK2(h) (Homo sapiens, UniProt Q9Y3S1); test: biochemical; design: Eurofins KinaseProfiler full panel at Km ATP, residual kinase activity (%) relative to DMSO
Chain of WNK2(h) (Q9Y3S1 whole entry): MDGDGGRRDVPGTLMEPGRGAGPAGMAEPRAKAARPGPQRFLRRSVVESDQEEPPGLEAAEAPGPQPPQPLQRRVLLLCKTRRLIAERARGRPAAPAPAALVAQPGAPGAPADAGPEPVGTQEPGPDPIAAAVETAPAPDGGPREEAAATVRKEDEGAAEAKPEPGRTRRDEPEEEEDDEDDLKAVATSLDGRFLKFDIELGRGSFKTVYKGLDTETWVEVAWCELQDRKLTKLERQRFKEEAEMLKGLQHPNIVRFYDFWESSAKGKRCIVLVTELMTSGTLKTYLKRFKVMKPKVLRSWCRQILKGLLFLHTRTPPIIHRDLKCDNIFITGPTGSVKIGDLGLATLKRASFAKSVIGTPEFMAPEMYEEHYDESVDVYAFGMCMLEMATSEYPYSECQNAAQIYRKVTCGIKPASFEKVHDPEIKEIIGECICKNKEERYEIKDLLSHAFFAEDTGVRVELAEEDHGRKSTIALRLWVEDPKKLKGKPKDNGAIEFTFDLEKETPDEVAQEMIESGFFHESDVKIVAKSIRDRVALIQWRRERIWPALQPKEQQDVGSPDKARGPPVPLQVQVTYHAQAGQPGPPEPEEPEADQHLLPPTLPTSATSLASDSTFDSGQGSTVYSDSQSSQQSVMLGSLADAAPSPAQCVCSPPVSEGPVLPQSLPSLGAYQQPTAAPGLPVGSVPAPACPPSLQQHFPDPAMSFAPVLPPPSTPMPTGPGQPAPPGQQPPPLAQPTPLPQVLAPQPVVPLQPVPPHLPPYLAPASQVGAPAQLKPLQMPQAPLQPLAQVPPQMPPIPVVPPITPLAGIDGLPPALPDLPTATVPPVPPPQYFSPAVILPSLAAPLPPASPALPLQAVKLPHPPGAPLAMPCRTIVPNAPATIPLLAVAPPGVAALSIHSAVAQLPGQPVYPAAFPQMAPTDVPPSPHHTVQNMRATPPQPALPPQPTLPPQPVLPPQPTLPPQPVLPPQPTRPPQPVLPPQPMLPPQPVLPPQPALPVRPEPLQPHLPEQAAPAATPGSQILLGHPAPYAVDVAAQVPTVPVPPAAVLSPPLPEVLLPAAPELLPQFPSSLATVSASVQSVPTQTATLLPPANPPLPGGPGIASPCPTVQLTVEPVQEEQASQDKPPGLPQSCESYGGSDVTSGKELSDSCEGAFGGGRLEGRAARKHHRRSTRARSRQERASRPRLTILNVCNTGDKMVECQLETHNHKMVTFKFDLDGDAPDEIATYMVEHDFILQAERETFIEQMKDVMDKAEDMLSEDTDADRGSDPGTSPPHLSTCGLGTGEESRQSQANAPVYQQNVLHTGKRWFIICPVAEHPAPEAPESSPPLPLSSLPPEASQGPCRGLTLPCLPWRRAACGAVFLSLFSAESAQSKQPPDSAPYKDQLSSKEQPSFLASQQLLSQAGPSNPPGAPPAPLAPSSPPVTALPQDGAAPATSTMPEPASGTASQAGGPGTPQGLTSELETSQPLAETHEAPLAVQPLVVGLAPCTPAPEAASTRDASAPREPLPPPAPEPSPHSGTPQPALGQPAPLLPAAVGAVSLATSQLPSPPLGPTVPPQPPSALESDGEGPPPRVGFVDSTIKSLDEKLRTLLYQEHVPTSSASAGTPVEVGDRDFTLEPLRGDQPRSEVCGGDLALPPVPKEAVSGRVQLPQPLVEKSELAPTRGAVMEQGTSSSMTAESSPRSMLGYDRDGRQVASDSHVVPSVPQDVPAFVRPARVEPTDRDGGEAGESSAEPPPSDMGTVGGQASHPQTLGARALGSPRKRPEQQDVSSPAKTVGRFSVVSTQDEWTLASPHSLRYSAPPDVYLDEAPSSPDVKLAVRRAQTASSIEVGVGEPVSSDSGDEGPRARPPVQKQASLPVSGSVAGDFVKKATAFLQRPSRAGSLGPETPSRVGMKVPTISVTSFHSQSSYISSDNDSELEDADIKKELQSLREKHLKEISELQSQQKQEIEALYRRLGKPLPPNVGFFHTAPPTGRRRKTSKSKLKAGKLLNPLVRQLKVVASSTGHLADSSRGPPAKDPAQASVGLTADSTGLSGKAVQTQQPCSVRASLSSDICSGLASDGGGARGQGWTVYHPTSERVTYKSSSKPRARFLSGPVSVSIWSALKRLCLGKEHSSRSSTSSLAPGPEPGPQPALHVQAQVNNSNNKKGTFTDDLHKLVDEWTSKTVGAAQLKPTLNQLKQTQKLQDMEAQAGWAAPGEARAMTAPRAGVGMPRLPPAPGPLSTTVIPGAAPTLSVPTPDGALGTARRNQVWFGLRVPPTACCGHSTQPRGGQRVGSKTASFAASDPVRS
Summary of the method: as §1

[9] = biological target: T1, NEK4; test: kinase panel (Eurofins), residual activity at […]; assay type: biochemical; settings: read-out: [drawing 3] / Residual Activity (%)
[10] = biological target: T4, EGFR; test: kinase panel (Eurofins), residual activity at […]; assay type: biochemical
[11] = biological target: T3, CLK4; test: kinase panel (Eurofins), residual activity at […]; assay type: biochemical
[12] = read-out: Residual activity (%) 5at
[13] = read-out: Residual activity (%) 5as
[14] = read-out: [drawing 2] / Residual Activity (%)
[15] = read-out: Residual activity (%) 5ay
[16] = read-out: [drawing 1] / Residual Activity (%)
[17] = read-out: Residual activity (%) Spautin-1 5aa

Fc1ccc2ncnc(NCCc3ccc(Cl)cc3)c2c1 [5at, N-[2-(4-Chlorophenyl)Ethyl]-6-Fluoro-4-Quinazolinamine]
IC50 [1]: ~1 µM | remaining activity at 10 µM [2, 12]: 87% | remaining activity at 10 µM [3, 12]: 16% | remaining activity at 10 µM [4, 12]: 72% | remaining activity at 10 µM [5, 12]: 76% | remaining activity at 10 µM [6, 12]: 84% | remaining activity at 10 µM [7, 12]: 99% | remaining activity at 10 µM [8, 12]: 76%

Fc1ccc(CCNc2ncnc3ccc(F)cc23)cc1 [5as, 6-Fluoro-N-[2-(4-Fluorophenyl)Ethyl]-4-Quinazolinamine]
remaining activity at 10 µM [9]: 27% | remaining activity at 10 µM [2, 13]: 87% | remaining activity at 10 µM [3, 13]: 12% | remaining activity at 10 µM [4, 13]: 46% | remaining activity at 10 µM [5, 13]: 77% | remaining activity at 10 µM [6, 13]: 88% | remaining activity at 10 µM [7, 13]: 94% | remaining activity at 10 µM [8, 13]: 74%

COc1ccc2ncnc(Nc3cccc(F)c3)c2c1 [5ay, N-(3-Fluorophenyl)-6-Methoxy-4-Quinazolinamine]
remaining activity at 10 µM [10, 14]: 1% | remaining activity at 10 µM [11, 14]: 6% | remaining activity at 10 µM [2, 15]: 89% | remaining activity at 10 µM [5, 15]: 68% | remaining activity at 10 µM [6, 15]: 90% | remaining activity at 10 µM [7, 15]: 92% | remaining activity at 10 µM [8, 15]: 71%

Fc1ccc(CNc2ncnc3ccc(F)cc23)cc1 [5aa, 6-Fluoro-N-(4-fluorobenzyl)-4-Quinazolinamine]
remaining activity at 10 µM [10, 16]: 27% | remaining activity at 10 µM [11, 16]: 19% | remaining activity at 10 µM [2, 17]: 87% | remaining activity at 10 µM [5, 17]: 89% | remaining activity at 10 µM [6, 17]: 102% | remaining activity at 10 µM [7, 17]: 88% | remaining activity at 10 µM [8, 17]: 77%
